The values below come from patent US20050020544A1, “Bicyclic CB2 cannabinoid receptor ligands” (priority 2002, published 2005).

Molecules are shown by their SMILES.

One series has as its system C57/BL male mice. Nature of the series: MPTP model for Parkinson's disease, TH immunoreactivity in SNpc. The class given is in vivo, mouse. The settings on record: 20 mg/kg i.p., once before first MPTP, day 7. The method, then:
The mice (C57/BL male mice, average weight 30 g, Harlan, Israel) were administered i.p. with 4 injections of MPTP (Sigma, USA) (20 mg/kg, 5 ml/kg) in saline (Teva Medical Israel) at 2 hours interval on day 1. The treatment groups, including: (a) Saline, untreated, (b) MPTP, untreated, (c) Vehicle (1:20of CREMOPHOR EL®:ethanol), 5 ml/kg i.p., and (d) test compounds, were administered i.p. once just before the first MPTP administration. Seven days following the MPTP treatment the animals were sacrificed (by i.p. administration of pentobarbitone sodium CTS Israel 100 mg/kg) and their brains removed for tyrosine hydroxylase (TH) detection using immunohistochemistry technique.
Brains were fixed by cardiac perfusion with 4% Paraformaldehyde followed by immersion of the brain in the same fixative for at least 72 hours. Then brains were washed with PBS and transferred to 30% sucrose in PBS until they sank. After the brains sink in the sucrose, they were frozen using the cryostat special fast freezing (−60° C.). […] Quantitative analysis was performed by counting of immunoreactive (IR) cells at the widest dimension of the SNpc lateral to the roots of the third cranial nerve separating medial and lateral SN at the level of interpreduncular nucleus. The amount of the labeling at the striatum level was evaluated using computerized image analysis system.
All data are expressed as mean±SD. […]

The test system of another series is Male ICR mice. Nature of the series: Visceral pain induced by i.p. acetic acid. The format is in vivo, mouse. How it is done:
Male ICR mice (25 g average body weight, Harlan, Israel) were pretreated by i.v. injection at volume dose of 5 ml/kg of vehicle, control and test compounds at various doses. Each treatment group was composed of at least 4 animals. Fifteen minutes later, the mice were injected i.p. with 10 ml/kg of 0.6% acetic acid and the number of withers is counted over a period of 5 minutes, starting 5 minutes after the acetic acid administration. The results are expressed as mean number of withers±SD.

Another series deals with Lewis rats. The class given is in vivo, rat. The method, then:
Various animal models of autoimmune encephalomyelitis are known in the art, depending on the method of induction, the strain of the animal and the antigen employed to induce the disease. The impact of bicyclic CB2 ligands was tested in EAE using Lewis rats in which the onset of disease is observed by the appearance of clinical symptoms about 10 days after induction. The disease progress and the clinical score increase and peak around day 15 and spontaneous recovery is observed around day 18 after induction of the disease. The animals (at least 9 per test group at initiation of study, except for the untreated control group that comprised only 5 rats) were maintained on a 12 hours light/12 hours dark regimen, at a constant temperature of 22° C., with food and water ad libitum. EAE was induced in these animals by immunization with s.c. injection to the hind paws of 25 μg of purified guinea pig myelin basic protein (MBP, Sigma) emulsified in 0.1 ml of Complete Freund's Adjuvant (Difco).
Methylprednisolone was used as positive control and it was administered daily for 5 consecutive days i.v. at 30 mg/kg starting from day of disease induction by MBP injection. The results are recorded as clinical score; score of 0 indicates a normal animal with no clinical signs, 0.5 indicates a loss of tonicity in the tail's distal part, 1 indicates whole tail paralysis, 2 indicates paraplegia, 3 indicates quadriplegia, 4 indicates complete body paralysis and moribund state and 5 indicates death. The clinical score of the animals is recorded for 11 days following onset of disease and the area under the curve (AUC) is calculated over this period of time.
Moreover, in a separate study animals were euthanized 15 days after induction of the disease by i.p. injection of 100 mg/kg pentobarbital. Brains and spinal cord were removed and were fixed by overnight incubation with 4% Paraformaldehyde. The cervical segment of the spinal cord was dehydrated using ethanol solutions of increasing concentration and then embedded in paraplast. The spinal cord was then sectioned (10 μm) and staining was performed using hematoxylin and eosin. The stained slides were examined under light microscopy for foci of infiltrating lymphocytes. Number of foci were counted and averaged in 6 sections for each animal. Three groups of at least 4 animals each were tested in this system: untreated, vehicle treated, and animals treated with 0.5 mg/kg of compound A. Results are expressed as average±SD of number of foci.

The next series concerns adult male ICR mice. The series can be described thus: Ear edema model (Croton oil). The class given is in vivo, mouse. The settings on record: 3 hours after Croton oil. How it is done:
The anti-inflammatory activity of the novel bicyclic CB2 ligands was screened in vivo using an ear edema model in mice. This test system utilizes various inflammation inducers, including Croton oil (CO) and Arachidonic acid (AA) and the outcome is assessed by measuring ear tissue swelling. […] The ability of the test compounds to prevent or diminish the inflammatory response to these stimulants is indicative of their systemic anti-inflammatory capability.
Compound A was dissolved in CREMOPHOR EL®:ethanol and injected i.p. in adult male ICR mice (30 g average body weight, Harlan, Israel) after dilution with sterile 0.9% sodium chloride to desired final concentrations according to required doses. Various doses of compounds were checked ranging from 0 to 30 mg/kg. Each treatment group was composed of 8-10 animals while the vehicle treated group was composed of 16 animals. […] Ear thickness was determined (in 0.01 mm units) 3 hours after CO application using a dial thickness gauge (Mitutoyo, Japan). Finally the ears were trimmed, an ear punch of 6 mm diameter was removed and its weight was measured. The ear edema is expressed as the ratio of ear punch weight of the CO treated ear versus the contralateral Acetone treated ear. Results are calculated as % inhibition as compared to CREMOPHOR EL®:ethanol vehicle treated animals.

Consider `CCCCCCC(C)(C)c1cc(OC)c(C2C=C(CO)C3CC2C3(C)C)c(OC)c1` (single isomer, unassigned; (+)) [HU-308, (+) {4-[4-(1,1-dimethylheptyl)-2,6-dimethoxy-phenyl]-6,6-dimethyl-bicyclo[3.1.1]hept-2-en-2-yl}-methanol, reference compound], for which the “SN dopaminergic (TH-IR) cells rescued from MPTP toxicity” value in the series on C57/BL male mice was “about 43%”.

As a reminder, the ED50 is the midpoint of the dose-response relation. A higher ED50 goes with a need for a large dose. As for `CCCCCCC(C)(C)c1cc(O)c(C2CC(=O)C3CC2C3(C)C)c(O)c1` (single isomer, unassigned; (-)) [Compound A, (−)-4-[4-(1,1-Dimethyl-heptyl)2,6-dihydroxy-phenyl]-6,6-dimethyl-bicyclo[3.1.1)heptan-2-one], the “inhibition of number of withers as compared to vehicle” value in the series with Male ICR mice (0.5 mg/kg i.v.) was found to be 64%; in the series with Male ICR mice (1 mg/kg i.v.), 95%; in the series with Male ICR mice (2 mg/kg i.v.), 100%. In addition, the number of withers is reported as 7.9±4.8 with Male ICR mice (0.5 mg/kg i.v., mean±SD); 1.2±0.6 in the series with Male ICR mice (1 mg/kg i.v., mean±SD); “no withers at all” with Male ICR mice (2 mg/kg i.v.). Also, the decrease of infiltration entry in the series on Lewis rats (0.5 mg/kg, 15 days after induction) is on record as “more than 50%”. For the same compound, in the series with Lewis rats (0.5 mg/kg, 15 days after induction, average±SD), the “number of infiltration foci in spinal cord” value was determined as 10±5 foci/section. In addition, the “reduction in the clinical score” value in the series on Lewis rats (1 mg/kg, independent blinded repeat) amounted to 30%. For the same compound, in the series with Lewis rats (1 mg/kg, three consecutive days from onset of disease), the “reduction in the AUC of the clinical score” value is reported as 35%. Moreover, the therapeutic index entry in the series with Lewis rats (EAE, 1 mg/kg versus tolerated 40 mg/kg) is recorded as “at least 40”. In addition, the 50% effective dose (ED50) in the series with adult male ICR mice (Mus musculus, ip) amounted to 30 mg/kg. The ED50 ear edema with adult male ICR mice (i.p.) was determined as 81 µmol/kg.
